Holding throughout (conditions): Compound concentration 10 µM
Assay [1] concerns the target T1, Alpha-1A adrenergic receptor (Homo sapiens) (UniProt P35348).
T1 sequence (whole entry): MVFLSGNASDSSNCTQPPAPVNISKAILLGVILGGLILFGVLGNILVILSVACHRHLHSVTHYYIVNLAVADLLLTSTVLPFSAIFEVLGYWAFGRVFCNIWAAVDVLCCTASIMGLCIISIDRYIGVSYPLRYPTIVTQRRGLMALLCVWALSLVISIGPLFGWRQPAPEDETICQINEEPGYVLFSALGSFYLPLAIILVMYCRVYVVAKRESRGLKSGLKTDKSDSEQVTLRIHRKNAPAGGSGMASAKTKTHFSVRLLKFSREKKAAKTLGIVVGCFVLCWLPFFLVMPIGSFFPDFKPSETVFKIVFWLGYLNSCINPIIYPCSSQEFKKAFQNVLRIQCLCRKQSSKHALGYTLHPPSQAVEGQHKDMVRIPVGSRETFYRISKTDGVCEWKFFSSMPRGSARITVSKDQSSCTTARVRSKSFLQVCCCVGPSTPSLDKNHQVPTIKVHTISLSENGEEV
Description: PDSP Primary Binding target: ADRA1A - Compounds are tested at 10 uM concentration, plate are incubated at room temperature in the dark for 90 minutes. Reaction are stopped by vacuum filtration onto 0.3% polyethyleneimine soaked filter mats using Filtermate harvester. Scintilation cocktail is then melted onto microwave-dried filters on a hot plate and the radio activity is counted in Microbia counter.

Assay [2] deals with 5-hydroxytryptamine receptor 1D (Homo sapiens) (UniProt P28221).
Description: PDSP Primary Binding target: HTR1D - Compounds are tested at 10 uM concentration, plate are incubated at room temperature in the dark for 90 minutes. Reaction are stopped by vacuum filtration onto 0.3% polyethyleneimine soaked filter mats using Filtermate harvester. Scintilation cocktail is then melted onto microwave-dried filters on a hot plate and the radio activity is counted in Microbia counter.
The target in assay [3] is D(2) dopamine receptor (Homo sapiens) (UniProt P14416).
Description: PDSP Primary Binding target: DRD2 - Compounds are tested at 10 uM concentration, plate are incubated at room temperature in the dark for 90 minutes. Reaction are stopped by vacuum filtration onto 0.3% polyethyleneimine soaked filter mats using Filtermate harvester. Scintilation cocktail is then melted onto microwave-dried filters on a hot plate and the radio activity is counted in Microbia counter.
Assay [4] concerns the target 5-hydroxytryptamine receptor 7 (Homo sapiens) (UniProt P34969).
Description: PDSP Primary Binding target: HTR7 - Compounds are tested at 10 uM concentration, plate are incubated at room temperature in the dark for 90 minutes. Reaction are stopped by vacuum filtration onto 0.3% polyethyleneimine soaked filter mats using Filtermate harvester. Scintilation cocktail is then melted onto microwave-dried filters on a hot plate and the radio activity is counted in Microbia counter.
Assay [5] deals with Muscarinic acetylcholine receptor M3 (Homo sapiens) (UniProt P20309).
Description: PDSP Primary Binding target: CHRM3 - Compounds are tested at 10 uM concentration, plate are incubated at room temperature in the dark for 90 minutes. Reaction are stopped by vacuum filtration onto 0.3% polyethyleneimine soaked filter mats using Filtermate harvester. Scintilation cocktail is then melted onto microwave-dried filters on a hot plate and the radio activity is counted in Microbia counter.
The target in assay [6] is Beta-1 adrenergic receptor (Homo sapiens) (UniProt P08588).
Description: PDSP Primary Binding target: ADRB1 - Compounds are tested at 10 uM concentration, plate are incubated at room temperature in the dark for 90 minutes. Reaction are stopped by vacuum filtration onto 0.3% polyethyleneimine soaked filter mats using Filtermate harvester. Scintilation cocktail is then melted onto microwave-dried filters on a hot plate and the radio activity is counted in Microbia counter.
Assay [7] has as its target T2, Muscarinic acetylcholine receptor M4 (Homo sapiens) (UniProt P08173).
T2 sequence (whole entry): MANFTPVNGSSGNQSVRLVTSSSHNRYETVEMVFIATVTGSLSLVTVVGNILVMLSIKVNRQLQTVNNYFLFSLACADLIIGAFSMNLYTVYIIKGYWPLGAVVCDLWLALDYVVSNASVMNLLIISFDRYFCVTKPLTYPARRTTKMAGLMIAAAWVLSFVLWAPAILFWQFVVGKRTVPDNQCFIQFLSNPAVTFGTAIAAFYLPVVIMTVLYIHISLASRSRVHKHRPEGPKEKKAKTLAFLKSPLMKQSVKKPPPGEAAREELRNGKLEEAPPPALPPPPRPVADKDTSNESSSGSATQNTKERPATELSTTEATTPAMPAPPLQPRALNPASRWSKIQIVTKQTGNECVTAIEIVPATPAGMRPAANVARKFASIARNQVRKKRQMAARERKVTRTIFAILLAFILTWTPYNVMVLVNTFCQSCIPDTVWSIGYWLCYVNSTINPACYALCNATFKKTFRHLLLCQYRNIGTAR
Description: PDSP Primary Binding target: CHRM4 - Compounds are tested at 10 uM concentration, plate are incubated at room temperature in the dark for 90 minutes. Reaction are stopped by vacuum filtration onto 0.3% polyethyleneimine soaked filter mats using Filtermate harvester. Scintilation cocktail is then melted onto microwave-dried filters on a hot plate and the radio activity is counted in Microbia counter.

Assay [8] deals with Sodium-dependent noradrenaline transporter (Homo sapiens) (UniProt P23975).
Description: PDSP Primary Binding target: SLC6A2 - Compounds are tested at 10 uM concentration, plate are incubated at room temperature in the dark for 90 minutes. Reaction are stopped by vacuum filtration onto 0.3% polyethyleneimine soaked filter mats using Filtermate harvester. Scintilation cocktail is then melted onto microwave-dried filters on a hot plate and the radio activity is counted in Microbia counter.
Assay [9] addresses Sodium-dependent dopamine transporter (Homo sapiens) (UniProt Q01959).
Description: PDSP Primary Binding target: SLC6A3 - Compounds are tested at 10 uM concentration, plate are incubated at room temperature in the dark for 90 minutes. Reaction are stopped by vacuum filtration onto 0.3% polyethyleneimine soaked filter mats using Filtermate harvester. Scintilation cocktail is then melted onto microwave-dried filters on a hot plate and the radio activity is counted in Microbia counter.
Assay [10] addresses T3, Muscarinic acetylcholine receptor M1 (Homo sapiens) (UniProt P11229).
T3 sequence (whole entry): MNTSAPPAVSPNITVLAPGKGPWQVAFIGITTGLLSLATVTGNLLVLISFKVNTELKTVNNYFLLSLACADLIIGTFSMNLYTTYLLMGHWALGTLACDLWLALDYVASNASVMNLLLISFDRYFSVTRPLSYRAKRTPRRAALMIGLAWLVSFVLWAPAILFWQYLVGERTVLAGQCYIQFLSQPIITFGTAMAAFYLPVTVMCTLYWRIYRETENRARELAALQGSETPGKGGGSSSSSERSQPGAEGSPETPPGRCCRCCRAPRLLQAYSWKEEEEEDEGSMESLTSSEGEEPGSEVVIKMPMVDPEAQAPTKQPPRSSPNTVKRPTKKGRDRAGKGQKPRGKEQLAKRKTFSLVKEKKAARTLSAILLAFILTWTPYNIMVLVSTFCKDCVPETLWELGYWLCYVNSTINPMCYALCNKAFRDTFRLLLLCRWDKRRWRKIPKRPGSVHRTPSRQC
Description: PDSP Primary Binding target: CHRM1 - Compounds are tested at 10 uM concentration, plate are incubated at room temperature in the dark for 90 minutes. Reaction are stopped by vacuum filtration onto 0.3% polyethyleneimine soaked filter mats using Filtermate harvester. Scintilation cocktail is then melted onto microwave-dried filters on a hot plate and the radio activity is counted in Microbia counter.

The target in assay [11] is Sigma non-opioid intracellular receptor 1 (Homo sapiens) (UniProt Q99720).
Description: PDSP Primary Binding target: SIGMAR1 - Compounds are tested at 10 uM concentration, plate are incubated at room temperature in the dark for 90 minutes. Reaction are stopped by vacuum filtration onto 0.3% polyethyleneimine soaked filter mats using Filtermate harvester. Scintilation cocktail is then melted onto microwave-dried filters on a hot plate and the radio activity is counted in Microbia counter.
Assay [12] addresses 5-hydroxytryptamine receptor 1B (Homo sapiens) (UniProt P28222).
Description: PDSP Primary Binding target: HTR1B - Compounds are tested at 10 uM concentration, plate are incubated at room temperature in the dark for 90 minutes. Reaction are stopped by vacuum filtration onto 0.3% polyethyleneimine soaked filter mats using Filtermate harvester. Scintilation cocktail is then melted onto microwave-dried filters on a hot plate and the radio activity is counted in Microbia counter.
Assay [13] deals with T4, Muscarinic acetylcholine receptor M5 (Homo sapiens) (UniProt P08912).
T4 sequence (whole entry): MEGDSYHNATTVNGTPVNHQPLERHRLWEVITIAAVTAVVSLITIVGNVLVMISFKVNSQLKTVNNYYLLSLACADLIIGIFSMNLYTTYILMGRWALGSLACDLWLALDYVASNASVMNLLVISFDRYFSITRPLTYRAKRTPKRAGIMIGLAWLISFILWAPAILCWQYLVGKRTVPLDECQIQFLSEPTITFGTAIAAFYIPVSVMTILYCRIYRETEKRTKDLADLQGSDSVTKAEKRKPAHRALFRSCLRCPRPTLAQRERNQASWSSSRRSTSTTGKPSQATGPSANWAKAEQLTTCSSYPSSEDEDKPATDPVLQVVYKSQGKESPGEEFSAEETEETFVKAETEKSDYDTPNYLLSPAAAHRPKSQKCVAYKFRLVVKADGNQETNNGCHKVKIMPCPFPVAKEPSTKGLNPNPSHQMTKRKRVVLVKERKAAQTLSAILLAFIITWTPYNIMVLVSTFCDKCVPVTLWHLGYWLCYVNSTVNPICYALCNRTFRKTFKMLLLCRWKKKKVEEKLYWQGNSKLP
Description: PDSP Primary Binding target: CHRM5 - Compounds are tested at 10 uM concentration, plate are incubated at room temperature in the dark for 90 minutes. Reaction are stopped by vacuum filtration onto 0.3% polyethyleneimine soaked filter mats using Filtermate harvester. Scintilation cocktail is then melted onto microwave-dried filters on a hot plate and the radio activity is counted in Microbia counter.

Assay [14] has as its target D(1A) dopamine receptor (Homo sapiens) (UniProt P21728).
Description: PDSP Primary Binding target: DRD1 - Compounds are tested at 10 uM concentration, plate are incubated at room temperature in the dark for 90 minutes. Reaction are stopped by vacuum filtration onto 0.3% polyethyleneimine soaked filter mats using Filtermate harvester. Scintilation cocktail is then melted onto microwave-dried filters on a hot plate and the radio activity is counted in Microbia counter.
Assay [15] addresses D(1B) dopamine receptor (Homo sapiens) (UniProt P21918).
Description: PDSP Primary Binding target: DRD5 - Compounds are tested at 10 uM concentration, plate are incubated at room temperature in the dark for 90 minutes. Reaction are stopped by vacuum filtration onto 0.3% polyethyleneimine soaked filter mats using Filtermate harvester. Scintilation cocktail is then melted onto microwave-dried filters on a hot plate and the radio activity is counted in Microbia counter.
In assay [16] the target is Histamine H3 receptor (Homo sapiens) (UniProt Q9Y5N1).
Sequence of Histamine H3 receptor (Homo sapiens) (Q9Y5N1 whole entry): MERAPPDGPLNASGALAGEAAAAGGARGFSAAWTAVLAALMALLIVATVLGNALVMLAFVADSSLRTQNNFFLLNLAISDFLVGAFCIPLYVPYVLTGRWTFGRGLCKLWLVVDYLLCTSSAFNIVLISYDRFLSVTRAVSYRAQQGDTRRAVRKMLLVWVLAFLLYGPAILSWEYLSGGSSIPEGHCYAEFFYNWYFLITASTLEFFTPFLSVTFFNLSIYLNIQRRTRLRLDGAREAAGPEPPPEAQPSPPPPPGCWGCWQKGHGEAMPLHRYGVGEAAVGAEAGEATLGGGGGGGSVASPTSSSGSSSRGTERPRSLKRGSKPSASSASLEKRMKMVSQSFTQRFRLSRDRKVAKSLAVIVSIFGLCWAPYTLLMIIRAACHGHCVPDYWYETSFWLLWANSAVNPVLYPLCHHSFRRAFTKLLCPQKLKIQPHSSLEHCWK
Description: PDSP Primary Binding target: HRH3 - Compounds are tested at 10 uM concentration, plate are incubated at room temperature in the dark for 90 minutes. Reaction are stopped by vacuum filtration onto 0.3% polyethyleneimine soaked filter mats using Filtermate harvester. Scintilation cocktail is then melted onto microwave-dried filters on a hot plate and the radio activity is counted in Microbia counter.

Sequence of Muscarinic acetylcholine receptor M3 (Homo sapiens) (P20309 whole entry, looked up): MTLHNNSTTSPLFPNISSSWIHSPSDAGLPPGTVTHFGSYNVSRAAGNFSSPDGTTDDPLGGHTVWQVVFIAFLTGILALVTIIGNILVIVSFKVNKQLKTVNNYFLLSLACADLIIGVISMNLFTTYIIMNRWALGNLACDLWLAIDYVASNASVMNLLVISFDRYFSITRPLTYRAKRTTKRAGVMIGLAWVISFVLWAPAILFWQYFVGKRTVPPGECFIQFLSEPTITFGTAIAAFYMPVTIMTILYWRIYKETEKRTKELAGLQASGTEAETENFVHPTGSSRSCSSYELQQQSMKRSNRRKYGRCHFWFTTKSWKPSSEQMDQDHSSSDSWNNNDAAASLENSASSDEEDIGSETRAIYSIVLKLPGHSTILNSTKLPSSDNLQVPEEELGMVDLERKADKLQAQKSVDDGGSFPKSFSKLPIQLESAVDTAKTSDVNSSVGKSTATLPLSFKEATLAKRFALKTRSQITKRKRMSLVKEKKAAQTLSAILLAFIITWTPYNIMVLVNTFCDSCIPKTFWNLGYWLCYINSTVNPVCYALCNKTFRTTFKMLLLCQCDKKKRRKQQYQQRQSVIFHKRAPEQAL
Sequence of Sigma non-opioid intracellular receptor 1 (Homo sapiens) (Q99720 whole entry): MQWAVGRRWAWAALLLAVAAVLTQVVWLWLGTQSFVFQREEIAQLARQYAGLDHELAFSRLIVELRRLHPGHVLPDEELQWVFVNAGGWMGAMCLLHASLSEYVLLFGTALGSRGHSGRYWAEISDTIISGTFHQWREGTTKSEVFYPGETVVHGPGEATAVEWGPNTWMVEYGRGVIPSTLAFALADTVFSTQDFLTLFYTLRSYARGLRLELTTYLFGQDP
Sequence of D(2) dopamine receptor (Homo sapiens) (P14416 whole entry): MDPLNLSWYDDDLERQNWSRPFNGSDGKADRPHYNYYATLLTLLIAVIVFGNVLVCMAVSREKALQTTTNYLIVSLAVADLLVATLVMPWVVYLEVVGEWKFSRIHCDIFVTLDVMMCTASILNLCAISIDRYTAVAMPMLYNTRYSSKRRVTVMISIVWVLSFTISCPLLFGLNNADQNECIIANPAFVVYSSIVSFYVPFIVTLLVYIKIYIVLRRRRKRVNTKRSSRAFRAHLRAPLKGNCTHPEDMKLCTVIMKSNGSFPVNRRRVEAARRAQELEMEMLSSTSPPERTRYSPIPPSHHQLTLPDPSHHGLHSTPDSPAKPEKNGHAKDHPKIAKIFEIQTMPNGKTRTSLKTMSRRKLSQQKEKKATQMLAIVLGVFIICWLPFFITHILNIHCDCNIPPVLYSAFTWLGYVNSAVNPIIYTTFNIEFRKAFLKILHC
Sequence of Beta-1 adrenergic receptor (Homo sapiens) (P08588 whole entry, looked up): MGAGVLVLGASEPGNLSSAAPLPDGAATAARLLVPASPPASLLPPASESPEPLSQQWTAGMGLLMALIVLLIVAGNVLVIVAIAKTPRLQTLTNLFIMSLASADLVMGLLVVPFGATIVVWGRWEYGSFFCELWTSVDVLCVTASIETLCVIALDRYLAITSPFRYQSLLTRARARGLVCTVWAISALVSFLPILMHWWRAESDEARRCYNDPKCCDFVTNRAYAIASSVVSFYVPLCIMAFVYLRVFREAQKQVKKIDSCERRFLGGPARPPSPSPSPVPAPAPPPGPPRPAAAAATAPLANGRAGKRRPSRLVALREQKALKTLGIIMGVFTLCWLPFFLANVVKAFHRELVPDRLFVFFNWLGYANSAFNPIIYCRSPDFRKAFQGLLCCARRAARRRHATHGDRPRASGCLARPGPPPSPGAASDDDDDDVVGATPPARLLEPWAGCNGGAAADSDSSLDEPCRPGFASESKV
Sequence of 5-hydroxytryptamine receptor 1D (Homo sapiens) (P28221 whole entry): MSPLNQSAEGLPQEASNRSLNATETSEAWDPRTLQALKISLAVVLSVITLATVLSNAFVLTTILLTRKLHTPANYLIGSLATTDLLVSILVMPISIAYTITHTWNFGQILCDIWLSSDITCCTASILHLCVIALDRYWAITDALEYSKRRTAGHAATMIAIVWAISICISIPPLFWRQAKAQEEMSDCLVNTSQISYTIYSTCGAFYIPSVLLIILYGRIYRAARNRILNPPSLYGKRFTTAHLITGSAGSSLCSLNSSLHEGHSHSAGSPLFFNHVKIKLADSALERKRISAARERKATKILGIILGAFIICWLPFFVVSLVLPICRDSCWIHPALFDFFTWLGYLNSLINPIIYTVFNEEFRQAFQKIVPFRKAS
Sequence of D(1A) dopamine receptor (Homo sapiens) (P21728 whole entry): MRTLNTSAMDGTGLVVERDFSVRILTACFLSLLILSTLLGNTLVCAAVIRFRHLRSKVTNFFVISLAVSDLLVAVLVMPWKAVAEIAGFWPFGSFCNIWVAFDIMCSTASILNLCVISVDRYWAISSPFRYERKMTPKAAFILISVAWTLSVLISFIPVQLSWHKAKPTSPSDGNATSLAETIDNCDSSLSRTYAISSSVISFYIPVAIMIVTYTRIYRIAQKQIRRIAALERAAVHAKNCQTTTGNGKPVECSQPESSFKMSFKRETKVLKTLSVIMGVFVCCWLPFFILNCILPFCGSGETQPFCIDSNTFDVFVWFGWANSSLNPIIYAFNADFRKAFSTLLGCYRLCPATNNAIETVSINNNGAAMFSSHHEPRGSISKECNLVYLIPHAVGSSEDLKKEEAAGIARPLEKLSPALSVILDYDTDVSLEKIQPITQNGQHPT
Sequence of 5-hydroxytryptamine receptor 7 (Homo sapiens) (P34969 whole entry): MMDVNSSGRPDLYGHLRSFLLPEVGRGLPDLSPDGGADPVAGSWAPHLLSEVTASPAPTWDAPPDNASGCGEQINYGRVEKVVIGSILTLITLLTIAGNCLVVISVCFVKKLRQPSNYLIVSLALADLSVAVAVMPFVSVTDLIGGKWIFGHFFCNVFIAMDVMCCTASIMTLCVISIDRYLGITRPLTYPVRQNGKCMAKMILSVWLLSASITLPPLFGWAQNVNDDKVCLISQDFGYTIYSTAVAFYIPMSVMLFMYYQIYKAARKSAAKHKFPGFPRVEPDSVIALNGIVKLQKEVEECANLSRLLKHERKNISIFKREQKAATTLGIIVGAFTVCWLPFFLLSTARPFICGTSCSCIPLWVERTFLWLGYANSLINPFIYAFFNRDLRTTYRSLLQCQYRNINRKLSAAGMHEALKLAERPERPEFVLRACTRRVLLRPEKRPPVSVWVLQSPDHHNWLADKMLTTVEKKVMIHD
Sequence of Sodium-dependent noradrenaline transporter (Homo sapiens) (P23975 whole entry): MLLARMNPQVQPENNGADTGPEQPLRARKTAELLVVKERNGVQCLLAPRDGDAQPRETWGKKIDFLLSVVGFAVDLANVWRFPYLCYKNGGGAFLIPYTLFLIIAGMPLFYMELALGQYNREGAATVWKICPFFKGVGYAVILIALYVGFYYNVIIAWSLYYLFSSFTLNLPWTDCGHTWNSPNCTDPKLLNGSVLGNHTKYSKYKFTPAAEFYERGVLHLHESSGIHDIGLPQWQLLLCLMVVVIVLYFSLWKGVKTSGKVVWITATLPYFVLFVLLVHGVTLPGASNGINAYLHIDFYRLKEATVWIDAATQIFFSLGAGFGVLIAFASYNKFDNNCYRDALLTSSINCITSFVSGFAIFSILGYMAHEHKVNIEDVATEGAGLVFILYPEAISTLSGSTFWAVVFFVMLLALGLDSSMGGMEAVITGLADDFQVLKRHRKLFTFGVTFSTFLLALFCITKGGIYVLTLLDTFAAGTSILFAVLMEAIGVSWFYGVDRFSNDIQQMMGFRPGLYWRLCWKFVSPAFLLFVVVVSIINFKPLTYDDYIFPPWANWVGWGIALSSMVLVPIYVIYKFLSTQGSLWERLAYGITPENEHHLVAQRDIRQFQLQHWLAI
Sequence of D(1B) dopamine receptor (Homo sapiens) (P21918 whole entry): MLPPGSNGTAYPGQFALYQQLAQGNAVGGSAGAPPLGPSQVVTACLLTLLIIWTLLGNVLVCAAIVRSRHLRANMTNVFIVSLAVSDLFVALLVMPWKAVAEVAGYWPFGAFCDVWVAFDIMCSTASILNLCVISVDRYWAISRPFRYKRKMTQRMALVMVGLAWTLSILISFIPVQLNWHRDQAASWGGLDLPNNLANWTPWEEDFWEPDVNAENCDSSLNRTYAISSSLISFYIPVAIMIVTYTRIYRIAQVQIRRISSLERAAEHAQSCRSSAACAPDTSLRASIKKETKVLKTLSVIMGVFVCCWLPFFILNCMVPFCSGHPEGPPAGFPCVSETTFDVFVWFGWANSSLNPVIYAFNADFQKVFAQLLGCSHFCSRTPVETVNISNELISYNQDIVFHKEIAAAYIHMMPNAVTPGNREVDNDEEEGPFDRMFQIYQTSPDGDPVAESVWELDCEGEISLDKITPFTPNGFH
Sequence of 5-hydroxytryptamine receptor 1B (Homo sapiens) (P28222 whole entry): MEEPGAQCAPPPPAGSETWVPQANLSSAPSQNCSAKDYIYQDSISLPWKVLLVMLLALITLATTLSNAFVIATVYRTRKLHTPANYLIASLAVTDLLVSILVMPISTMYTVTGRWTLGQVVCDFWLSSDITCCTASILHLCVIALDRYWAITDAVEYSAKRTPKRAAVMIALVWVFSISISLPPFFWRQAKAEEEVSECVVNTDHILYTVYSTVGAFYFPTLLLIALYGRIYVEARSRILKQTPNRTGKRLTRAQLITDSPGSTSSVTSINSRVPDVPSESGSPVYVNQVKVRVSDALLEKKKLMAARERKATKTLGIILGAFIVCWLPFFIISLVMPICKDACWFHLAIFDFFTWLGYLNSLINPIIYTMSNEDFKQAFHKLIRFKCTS

`C[N+]1(C)[C@@H]2C[C@@H](OC(=O)C(O)(c3cccs3)c3cccs3)C[C@H]1[C@@H]1O[C@@H]12`: the inhibition in assay [1] was 3.89%; in assay [2], 32.9%; in assay [3], 15.2%; in assay [4], -5.44%; in assay [5], 99.2%; in assay [6], 7.61%. Besides, the inhibition in [7] was 98.8%; in [8], -2.62%; in assay [9], -2.43%; in [10], 94.5%; in assay [11] it was 32.7%; in [12], 14.9%. Further, in [13], the inhibition was 97.4%.
In the case of `CCc1cc2c(cc1CC)CC(NC[C@H](O)c1ccc(O)c3[nH]c(=O)ccc13)C2`, the inhibition in assay [14] is 11.9%; in assay [1], 84.1%; in [2], 118%; in assay [15], 38.5%; in assay [3], -7.35%; in assay [4], -0.79%. In addition, the inhibition was 18.1% in assay [5]; 68% in assay [6]; 17.9% in assay [7]; 84.6% in assay [8]; 83.1% in assay [9]; -6.02% in assay [10]. Moreover, the inhibition was -7.63% in assay [11], 34.4% in assay [12] and 37.8% in [13].
Regarding `CC1CCN(CC[C@H]2CCCN2S(=O)(=O)c2cccc(O)c2)CC1`, the inhibition in [14] was -5.94%; in [2], 88.7%; in [15], 85.1%; in assay [3], 33.5%; in assay [4], 85.8%; in [5], 0.09%. Besides, the inhibition in assay [6] is 9.71%; in assay [7], 8.85%; in assay [8] it was 30.6%; in assay [16], -4.13%; in assay [9] it was 46.1%; in assay [10], -8.14%. Besides, the inhibition was -8.64% in assay [11], 78.2% in assay [12] and 1.99% in [13].
In the case of `CC1(C)SSC(C)(C)[C@@H](NC(=O)[C@@H](N)Cc2ccc(O)cc2)C(=O)NCC(=O)N[C@@H](Cc2ccccc2)C(=O)N[C@H]1C(=O)O`, the inhibition in [14] is 11.4%; in assay [1], -6.07%; in [2] it was 15.2%; in assay [15] it was 3.84%; in assay [3], 30.3%; in assay [4], -0.55%. For the same molecule, the inhibition in assay [5] is -1.79%; in assay [6] it was -5.41%; in [7], -2.51%; in [8], 3.43%; in [16], -2.58%; in assay [9], 27.3%. The values for the inhibition in [10], in assay [11] and in [12] were -6.96%, 21.7% and 7.79%, respectively.
With `CN(C)C(=O)N[C@H]1CC[C@H](CCN2CCN(c3cccc(Cl)c3Cl)CC2)CC1`, the inhibition in assay [14] was 36.3%; in [1], 89.1%; in assay [2], 101%; in assay [15] it was -0.02%; in assay [3], 100%; in assay [4], 104%. In addition, the inhibition in [5] is 27.8%; in assay [6], 92.4%; in assay [7], 64%; in [8], 49.7%; in assay [16], 4.23%; in assay [9], 52.5%. The inhibition in [10] was 11.8%; in assay [12] it was 93.7%; in assay [13], 59.3%.
`O=C(O)c1cc(-c2ccc(C3CCNCC3)cc2)c2ccc(-c3ccc(C(F)(F)F)cc3)cc2c1`: the inhibition in assay [14] was 27%; in [2] it was 73.1%; in assay [15], 81%; in assay [3], 11.9%; in assay [4], 51.5%; in [5] it was 1.23%. Further, the inhibition in assay [6] was 47%; in assay [7] it was -1.1%; in assay [8] it was 88%; in [16], 10.6%; in [9], 82.5%; in [10], 23.8%. Further, the inhibition is 31.5% in assay [11], 73.7% in assay [12] and 51.9% in assay [13].
With `CN1CCN(c2ccc(Nc3c4ccccc4nc4ccccc34)cc2)CC1`, the inhibition is 50.9% in assay [1]; 54.3% in [2]; 14.1% in [15]; -0.18% in assay [3]; 84.4% in [4]; 43.4% in assay [5]. The inhibition in assay [6] is 0.45%; in assay [7], 24.6%; in [8] it was 84.7%; in [16], 82.6%; in assay [9] it was 62.7%; in assay [10] it was 51.2%. The inhibition is 86.4% in assay [11], 30.3% in assay [12] and 42.3% in [13].
On to `OC[C@H]1O[C@@H](n2cnc3c(NC4CCCC4)ncnc32)[C@H](O)[C@@H]1O`, for which the inhibition was -1.28% in [14]; -0.37% in [1]; 24.7% in [2]; 80.8% in assay [15]; 25% in [3]; 16.1% in assay [4]. In addition, the inhibition is -0.28% in [5]; 1.3% in assay [6]; 3.39% in assay [7]; 28.3% in assay [8]; 7.78% in [16]; 36.9% in assay [9]. The inhibition in [10] is 15.4%; in assay [11] it was 51.9%; in [12], 15.9%.

The inhibition is the change of the read-out against control, counted positive when it falls.
